In publication PMC6697720, “Saturation of acyl chains converts cardiolipin from an antagonist to an activator of Toll-like receptor-4” (Cellular and Molecular Life Sciences: CMLS, 2019):

How the values were obtained:
RAW-Blue cells = assay: NF-κB activation (SEAP, Quanti-Blue) by CL or LPS in RAW-Blue cells; type: cell-based, murine; conditions: CL alone, overnight
Description: RAW-Blue™ cells were seeded the day before the experiment at 5 × 10^5 cells/mL in 48-well plates (500 μL/well).
These cells express a secreted embryonic alkaline phosphatase (SEAP) when NF-κB is activated. NF-κB activation was measured by measuring the alkaline phosphatase produced by RAW-Blue™ cells using the Quanti-Blue™ reagent (InvivoGen), according to the manufacturer’s instructions.
(§1) Fig. 3 Saturated but not unsaturated CLs have pro-inflammatory properties. a RAW-Blue™ cells were incubated overnight with the indicated amount of CL or LPS, supernatants were collected, and NF-κB activation quantified via Quanti-Blue™ test and reported here as fold induction as compared to control. Unpaired t test: differences with respect to the control (Ctrl) are not significant if p > 0.05 (no symbol); *p ≤ 0.0007. b Immortalized BMDM cells were incubated overnight with the indicated amount of CL or LPS; supernatants were collected and TNF-α quantified via ELISA assay. c, d Primary human monocytes were incubated overnight with the indicated amount of CL or LPS with or without the NLRP3 inhibitor MCC950, supernatants were collected, and TNF-α and IL-1β were quantified via ELISA assay. Graphs are representative of experiments from six different donors. Unpaired t test: differences with respect to the control (Ctrl) are not significant if p > 0.05 (no symbol); *p ≤ 0.021. Each bar represents the mean + standard deviation of three biological replicates (n = 3). Graphs are representative of at least three independent experiments

[1] = molecular target: T1, human TLR4, MD2, and CD14 (Homo sapiens, UniProt O00206+Q9Y6Y9); assay: NF-κB luciferase reporter activation by CLs in HEK293 cells transfected with human TLR4, MD2 and CD14; type: cell-based; conditions: for activation of human TLR4 (NF-κB): 6 h incubation
T1 construct: expressed in transfected cells; host or cells: HEK293 (ATCC CRL1573), transient transfection with jetPEI
T1 sequence (O00206 24-839): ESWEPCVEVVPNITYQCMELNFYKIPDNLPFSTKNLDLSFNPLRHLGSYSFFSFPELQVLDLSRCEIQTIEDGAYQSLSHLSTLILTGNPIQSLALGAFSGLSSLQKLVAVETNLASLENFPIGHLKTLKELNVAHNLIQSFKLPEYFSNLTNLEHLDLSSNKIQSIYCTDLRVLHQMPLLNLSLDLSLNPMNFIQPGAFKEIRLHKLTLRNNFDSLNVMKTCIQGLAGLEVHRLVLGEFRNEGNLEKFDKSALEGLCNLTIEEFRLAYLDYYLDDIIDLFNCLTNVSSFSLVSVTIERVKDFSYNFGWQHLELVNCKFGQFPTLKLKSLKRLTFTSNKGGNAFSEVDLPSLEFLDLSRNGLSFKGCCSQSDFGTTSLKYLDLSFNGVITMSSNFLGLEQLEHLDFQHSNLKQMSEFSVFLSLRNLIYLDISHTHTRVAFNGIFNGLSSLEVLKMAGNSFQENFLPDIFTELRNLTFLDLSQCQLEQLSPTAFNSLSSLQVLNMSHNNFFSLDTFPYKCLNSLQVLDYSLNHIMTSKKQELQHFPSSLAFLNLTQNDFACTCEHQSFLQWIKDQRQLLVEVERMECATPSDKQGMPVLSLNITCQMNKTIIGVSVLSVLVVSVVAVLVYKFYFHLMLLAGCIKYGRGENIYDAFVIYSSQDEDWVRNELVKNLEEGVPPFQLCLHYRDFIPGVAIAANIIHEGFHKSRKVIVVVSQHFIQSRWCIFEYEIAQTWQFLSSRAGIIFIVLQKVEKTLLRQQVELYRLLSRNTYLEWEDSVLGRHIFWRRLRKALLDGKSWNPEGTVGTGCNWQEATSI
T1 sequence (Q9Y6Y9 19-160): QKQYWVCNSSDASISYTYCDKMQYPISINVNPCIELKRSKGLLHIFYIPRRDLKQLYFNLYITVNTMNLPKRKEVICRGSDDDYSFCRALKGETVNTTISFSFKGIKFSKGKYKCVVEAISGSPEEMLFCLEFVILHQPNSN
Description: Cells were seeded at 4 × 10^4 cells/mL in 96-well plates (200 μL/well) and transiently transfected 4 days later. Expression vectors containing an NF-κB transcription reporter vector-encoding firefly luciferase (10 ng/well pNF-κB-luc from Clontech), and a constitutively active reporter vector-encoding Renilla luciferase (5 ng/well phRG-TK; Promega), together with empty vector (pcDNA3.1 from Invitrogen Cat. N. V79020) and cDNA encoding human membrane CD14 (3 ng/well) and human or murine TLR4 and MD2 (3 ng/well) were mixed with jetPEI (Polyplus transfection Cat.N. 101-10N) and incubated with cells according to the manufacturer’s instructions.
After treatment supernatants were discarded, cells were washed with PBS and lysed with passive lysis buffer (Promega Cat.N. E1941). Luciferase and Renilla activity on cell lysates were quantified on a BioTek Synergy HT microplate reader using home-made luciferase reagent (20 mM Tricine, 2.67 mM MgSO4·7H2O, 0.265 mM (MgCO3)4Mg(OH)2·5H2O, 0.1 mM EDTA, 33.3 mM DTT, 530 μM ATP, 270 μM Acetyl Coenzyme A (Lithium salt), 470 μM luciferin (Biosynth), pH 7.8, diluted two times in water before use), or coelenterazine (Biosynth) dissolved in ethanol at 1 mg/mL and diluted 500 times in PBS before use as previously described. Firefly and Renilla luciferase activity on cell lysates were normalized, and data were expressed as fold induction as compared to unstimulated conditions.
The first signaling event of these pathways is NF-κB activation through TLR4 activation. To investigate how the individual CD14, TLR4, and MD2 proteins contribute to the responses of cells to CL, we used the HEK transfection model where we can control which protein (including from different species) may be added to the cells and their contribution to CL activation of Nf-κB [21, 30, 31]. We transfected HEK293 cells with human or murine CD14 and MD2 with or without TLR4 and incubated them with saturated CLs for 6 h (Fig. 4a). All three saturated CLs activated murine TLR4. By contrast, only C16:0 and C18:0 activated the human receptor. To further confirm the role of TLR4, we compared TNF-α secretion induced by C14:0 CL in wild-type (WT) or TLR4 knock out (TLR4 KO) immortalized BMDMs. Both LPS and C14:0 CL induced TNF-α secretion in WT but not in TLR4-KO BMDMs (Fig. 4b). TLR4-KO BMDMs were normally responsive to TLR2 ligand Pam3CSK4 (data not shown).
Fig. 4 Saturated CLs are TLR4 agonists. a HEK293 cells were transfected with plasmids encoding murine TLR4, MD2, and CD14 (mTLR4), human TLR4, MD2, and CD14 (hTLR4) or with empty pcDNA3.1 plasmid, MD2 and CD14 (w/o TLR) together with a luciferase reporter plasmid dependent on NF-κB activation and a constitutively active reporter vector-encoding renilla luciferase. Two days after transfection, cells were incubated for 6 h with medium alone (Ctrl) or the indicated amount of CLs or LPS. Luciferase and renilla were quantified in cell lysate, normalized and reported here as fold induction as compared to control. Unpaired t test: differences compared to the control are not significant if p > 0.05(no symbol); *p ≤ 0.005. b WT and TLR4-KO iBMDM cells were incubated overnight with medium (c), LPS or C14:0 CL. For each condition, mTNF-α was measured by ELISA assay. Unpaired t test: differences with respect to the control are not significant if p > 0.05(no symbol); *p ≤ 0.0001. Each bar represents the mean + standard deviation of three biological replicates (n = 3). […]

immortalized BMDMs = assay: TNF-α secretion in immortalized BMDMs (WT or TLR4-KO) incubated with CL or LPS; type: cell-based, murine; conditions: overnight; for TNF-α secretion: CL alone, immortalized BMDM
Description: Immortalized BMDM were seeded the day before the experiment at 5 × 10^5 cells/mL in 48-well plates (500 μL/well).
After stimulation, supernatants were collected, centrifuged, and assayed for cytokine secretion, while cells were assayed for viability.
TNF-α and IP-10 were quantified in cell supernatants using DuoSet ELISA kits from R&D Systems and human IL-1β using Instant ELISA™ Kit from Invitrogen, according to the manufacturer’s instructions. Absorbance was read with a BioTek Synergy HT Microplate Readers.
as §1
Fig. 4 Saturated CLs are TLR4 agonists. a HEK293 cells were transfected with plasmids encoding murine TLR4, MD2, and CD14 (mTLR4), human TLR4, MD2, and CD14 (hTLR4) or with empty pcDNA3.1 plasmid, MD2 and CD14 (w/o TLR) together with a luciferase reporter plasmid dependent on NF-κB activation and a constitutively active reporter vector-encoding renilla luciferase. Two days after transfection, cells were incubated for 6 h with medium alone (Ctrl) or the indicated amount of CLs or LPS. Luciferase and renilla were quantified in cell lysate, normalized and reported here as fold induction as compared to control. Unpaired t test: differences compared to the control are not significant if p > 0.05(no symbol); *p ≤ 0.005. b WT and TLR4-KO iBMDM cells were incubated overnight with medium (c), LPS or C14:0 CL. For each condition, mTNF-α was measured by ELISA assay. Unpaired t test: differences with respect to the control are not significant if p > 0.05(no symbol); *p ≤ 0.0001. Each bar represents the mean + standard deviation of three biological replicates (n = 3). Graphs are representative of at least three independent experiments

activation of human TLR4 (NF-κB) [1] | NF-κB induction in HEK293 cells transfected with TLR4 in the absence of CD14 or MD2 ([1]; hTLR4 without CD14 or without MD2, 6 h) | Structure (SMILES) | NF-κB activation (RAW-Blue cells) | TNF-α secretion (immortalized BMDMs) | TNF-α secretion in WT iBMDMs (immortalized BMDMs; wild-type)
not | – | CCCCCCCCCCCCCC(=O)OC[C@H](COP(=O)(O)OCC(O)COP(=O)(O)OC[C@@H](COC(=O)CCCCCCCCCCCCC)OC(=O)CCCCCCCCCCCCC)OC(=O)CCCCCCCCCCCCC (some centres unmarked) [C14:0 CL] | induced | induced | induced
activated | not induced | CCCCCCCCCCCCCCCCCC(=O)OC[C@H](COP(=O)(O)OCC(O)COP(=O)(O)OC[C@@H](COC(=O)CCCCCCCCCCCCCCCCC)OC(=O)CCCCCCCCCCCCCCCCC)OC(=O)CCCCCCCCCCCCCCCCC (some centres unmarked) [C18:0 CL] | induced | induced | –
